The supplement of paper PMC13380429

Tests used:
Conditions in all cases: 72 h
U2OS [1] = test: relative viability EC50 (midpoint between 100% and the lowest measured viability); higher = less toxic
Calu-3 [2] = test: as above
Vero E6 [3] = test: as above
U2OS [4] = test: drug sensitivity score (DSS) for viability; higher = more toxic; extreme values may be limits of the assay
Calu-3 [5] = test: as above
Vero E6 [6] = test: as above
U2OS [7] = test: cell viability relative to DMSO; higher = less toxic
Calu-3 [8] = test: as above
Vero E6 [9] = test: as above
Caco-2 [10] = test: relative viability EC50 (midpoint between 100% and the lowest measured viability); higher = less toxic
HepG2 [11] = test: as above
Caco-2 [12] = test: drug sensitivity score (DSS) for viability; higher = more toxic; extreme values may be limits of the assay
HepG2 [13] = test: as above
Caco-2 [14] = test: cell viability relative to DMSO; higher = less toxic
HepG2 [15] = test: as above

SMILES	relative viability EC50 (U2OS [1])	relative viability EC50 (Calu-3 [2])	relative viability EC50 (Vero E6 [3])	drug sensitivity score (U2OS [4])	drug sensitivity score (Calu-3 [5])	drug sensitivity score (Vero E6 [6])	cell viability (U2OS [7]; 1 nM)	cell viability (U2OS [7]; 10 nM)	cell viability (U2OS [7]; 100 nM)	cell viability (U2OS [7]; 1000 nM)	cell viability (U2OS [7]; 10000 nM)	cell viability (Calu-3 [8]; 1 nM)	cell viability (Calu-3 [8]; 10 nM)	cell viability (Calu-3 [8]; 100 nM)	cell viability (Calu-3 [8]; 1000 nM)	cell viability (Calu-3 [8]; 10000 nM)	cell viability (Vero E6 [9]; 1 nM)	cell viability (Vero E6 [9]; 10 nM)	cell viability (Vero E6 [9]; 100 nM)	cell viability (Vero E6 [9]; 1000 nM)	cell viability (Vero E6 [9]; 10000 nM)	relative viability EC50 (Caco-2 [10])	relative viability EC50 (HepG2 [11])	drug sensitivity score (Caco-2 [12])	drug sensitivity score (HepG2 [13])	cell viability (Caco-2 [14]; 1 nM)	cell viability (Caco-2 [14]; 10 nM)	cell viability (Caco-2 [14]; 100 nM)	cell viability (Caco-2 [14]; 1000 nM)	cell viability (Caco-2 [14]; 10000 nM)	cell viability (HepG2 [15]; 1 nM)	cell viability (HepG2 [15]; 10 nM)	cell viability (HepG2 [15]; 100 nM)	cell viability (HepG2 [15]; 1000 nM)	cell viability (HepG2 [15]; 10000 nM)
Cn1c(=O)c2[nH]cnc2n(C)c1=O [aminophylline]	> 10 µM	> 10 µM	> 10 µM	0	0	0	99.1%	98.9%	94.9%	101%	103%	99.2%	114%	100%	108%	114%	99.5%	100%	94.9%	93.1%	112%	–	–	–	–	–	–	–	–	–	–	–	–	–	–
CN1C[C@H](C(=O)N[C@]2(C)O[C@@]3(O)[C@@H]4CCCN4C(=O)[C@H](Cc4ccccc4)N3C2=O)C[C@@H]2c3cccc4[nH]cc(c34)C[C@H]21 [dihydroergotamine]	–	> 10 µM	–	–	0	–	–	–	–	–	–	102%	96.9%	96.3%	95.1%	114%	–	–	–	–	–	> 10 µM	> 10 µM	0	0	102%	98.3%	108%	111%	99.7%	109%	113%	105%	109%	97.3%
COc1cc([C@@H]2c3cc4c(cc3[C@@H](O[C@@H]3O[C@@H]5CO[C@@H](C)O[C@H]5[C@H](O)[C@H]3O)[C@H]3COC(=O)[C@H]23)OCO4)cc(OC)c1O [etoposide]	2.32 µM	1.52 µM	> 10 µM	3.8	5.3	0.7	100%	104%	99.9%	94.5%	46.1%	83.1%	92.5%	90.4%	81.1%	40.7%	104%	105%	103%	98.7%	80.2%	–	0.701 µM	2.7	7.2	93.5%	97.1%	92.2%	97.7%	54.2%	111%	85.2%	96.3%	65.6%	43.1%
CCCCCCOc1ccccc1C(N)=O [exalamide]	> 10 µM	> 10 µM	> 10 µM	0	0	0	95.6%	92.7%	101%	93.1%	94.3%	106%	115%	107%	98.3%	113%	110%	105%	102%	105%	86.9%	–	> 10 µM	–	0	–	–	–	–	–	110%	96.1%	95.9%	109%	90%
CC1=C(/C=C/C(C)=C/C=C/C(C)=C/C(=O)Nc2ccc(O)cc2)C(C)(C)CCC1 [fenretinide]	> 10 µM	> 10 µM	> 10 µM	0.1	0.9	0	97.7%	97.8%	99.5%	104%	86.8%	98.9%	99.9%	93.3%	89.5%	84%	95%	98.9%	101%	101%	91.1%	–	> 10 µM	2.5	1.2	98.7%	103%	100%	93.2%	67.9%	99.6%	92.6%	99.1%	91.3%	80%
NCC1(CC(=O)O)CCCCC1 [gabapentin]	–	> 10 µM	> 10 µM	–	0	0	–	–	–	–	–	120%	118%	100%	110%	94.4%	96%	93.6%	89.3%	94.3%	92.5%	–	> 10 µM	–	0	–	–	–	–	–	102%	97.6%	94.2%	89.3%	108%
Nc1ccn([C@@H]2O[C@H](CO)[C@@H](O)C2(F)F)c(=O)n1 [gemcitabine]	–	0.529 µM	–	8.6	8.2	11.9	97%	105%	72.9%	67.8%	74.1%	97.5%	106%	86.5%	63.9%	40.8%	102%	102%	62.3%	59.4%	61.4%	–	0.0105 µM	9.9	23.1	100%	89%	72.5%	66.2%	72%	99.5%	71.2%	38.3%	38.9%	40.3%
CCCCCCCCCCCCCC(=O)OC(C)C [isopropyl-myristate]	–	> 10 µM	> 10 µM	–	0	0	–	–	–	–	–	98.3%	105%	101%	105%	94.1%	101%	104%	91.5%	96.8%	96.4%	> 10 µM	–	0	–	111%	97%	110%	96.9%	98.6%	–	–	–	–	–
CNC(=O)[C@@H](NC(=O)[C@H](CC(C)C)[C@H](O)C(=O)NO)C(C)(C)C [marimastat]	> 10 µM	> 10 µM	> 10 µM	0	3.6	0	98.7%	100%	92.9%	95.9%	91.5%	96.2%	102%	86.4%	87.4%	81.3%	108%	103%	100%	104%	90.7%	–	> 10 µM	1.3	0	79.5%	106%	89.9%	99.9%	70.5%	103%	99.7%	121%	106%	113%
O=[N+]([O-])c1cncn1CCN1CCOCC1 [nimorazole]	–	> 10 µM	–	–	0	–	–	–	–	–	–	102%	105%	94.6%	108%	93.9%	–	–	–	–	–	> 10 µM	> 10 µM	0	0	102%	107%	94.8%	106%	96.3%	118%	112%	97.2%	98.7%	117%
CC(=O)c1c(C)c2cnc(Nc3ccc(N4CCNCC4)cn3)nc2n(C2CCCC2)c1=O [palbociclib]	–	> 10 µM	1.4 µM	3.4	0	7.2	104%	94.8%	98.8%	92.3%	57.3%	101%	90.6%	98.4%	85.8%	92.8%	97.9%	101%	96.4%	77.3%	26.9%	–	0.525 µM	4.5	9.7	97.1%	90.6%	95.6%	86.2%	50.4%	92.5%	88.5%	80.7%	65.9%	29.4%
CC[C@@H]([C@H](C)O)n1ncn(-c2ccc(N3CCN(c4ccc(OC[C@@H]5CO[C@@](Cn6cncn6)(c6ccc(F)cc6F)C5)cc4)CC3)cc2)c1=O [posaconazole]	> 10 µM	> 10 µM	2.13 µM	0	0	4.3	92.9%	101%	93.7%	90%	93.8%	106%	103%	91.5%	92.9%	93%	98.8%	106%	93.4%	92.8%	43.2%	–	2.81 µM	2.4	4.5	97.6%	99%	94.3%	86.7%	70.2%	97.8%	86.9%	105%	96.6%	27.5%
O=C(C=Cc1ccccc1)NC(NC(=S)Nc1ccc(Cl)cc1)C(Cl)(Cl)Cl (stereo unspecified) [sal003]	> 10 µM	> 10 µM	> 10 µM	0	0	0.5	98.8%	94.6%	98.2%	93.7%	91.5%	106%	99.8%	95.1%	108%	95.6%	94.9%	102%	100%	100%	81.2%	–	3.08 µM	2.2	4.6	97.6%	96%	101%	91.1%	74.1%	104%	102%	96.2%	99%	19.1%
O=C1NC(O)CCN1[C@@H]1O[C@H](CO)[C@@H](O)[C@H]1O (stereo partly specified) [tetrahydrouridine]	–	> 10 µM	–	–	0	–	–	–	–	–	–	108%	102%	103%	101%	96.2%	–	–	–	–	–	> 10 µM	> 10 µM	0	0	101%	100%	95.2%	102%	99.2%	112%	101%	98.1%	99.1%	110%
CN1CCN(CC/C=C2/c3ccccc3Sc3ccc(S(=O)(=O)N(C)C)cc32)CC1 [thiothixene]	> 10 µM	> 10 µM	> 10 µM	0.3	0.6	0.2	95.7%	97%	95.6%	99.4%	84.5%	96.4%	102%	119%	104%	77.6%	99.5%	108%	97.2%	91.8%	88.1%	–	–	1.6	2.6	107%	104%	103%	97.5%	71.4%	94.2%	102%	104%	87.6%	73.3%
C[C@H](NC(=O)/C(C#N)=C/c1ccc(O)c(O)c1)c1ccccc1 [tyrphostin-AG-835]	> 10 µM	> 10 µM	> 10 µM	0	0	0	97.2%	98.5%	98.3%	98.3%	91%	89.4%	96.8%	109%	97.2%	98.2%	98%	90.4%	98.5%	89.6%	89.6%	–	> 10 µM	1.5	1	92.2%	97.2%	90.5%	93.7%	74.6%	109%	90.9%	106%	97.3%	78.9%
